According to patent publication US6812213B2, “Steroidal sapogenins and their derivatives for treating alzheimer's disease” (Phytopharm, plc, priority 1998, dated 2004):
Several values for one entry are separate records, joined by “and”; a condition that tells them apart may be missing. Equal entries are not always repeated.

Key:
[1] = test system: muscarinic receptors on cultured cardiac muscle cells; assay: Muscarinic receptor expression on cultured neonatal cardiac muscle cells (tritiated QNB); type: cell-based, Sprague Dawley rats
Protocol: 3. Cultured cardiac muscle cells obtained from neonatal Sprague Dawley rats. The cardiac muscle cells express muscarinic receptors, typically m2. The level of these receptors falls on prolonged culture and the effects of compounds of interest in preventing the fall in receptor numbers was investigated.
Cardiac muscle cells were isolated from the ventricular muscle of neonatal Sprague Dawley rats using standard techniques. Cells were cultured in vitro and muscarinic receptor numbers expressed on cell surfaces membrane fragments after homogenisation of cells harvested at various time points were estimated using specific binding of tritiated QNB. […] The experiments were therefore designed to investigate the effects of the various compounds in inhibiting this decline in receptor numbers.

[2] = test system: oestrogen receptor; assay: Oestrogenic effects of steroid sapogenin compounds
From the text: In identifying compounds that would have use in the treatment of SDAT and other diseases characterised by reductions in receptor numbers or synaptic transmission, the inventors have given consideration to the need to identify compounds that would have the desired effect but would be devoid of any oestrogenic effects, as these would be unacceptable, particularly in male patients. A number of the compounds claimed to have activity in patent application DE 4303214A1 have marked oestrogenic activity and are therefore unacceptable.
In addition these compounds were tested at other steroid receptors as it was considered that compounds that would be of clinical sue should have no effects at the other steroid receptors.

[3] = test system: m2 receptors on CHO cells; assay: Expression of m2 receptors on transfected CHO cells (tritiated QNB binding); type: cell-based; conditions: DMSO control
Protocol: 1. Chinese hamster ovary (CHO) cells transfected with the a DNA fragment coding for a muscarinic receptor. The cell line used for the majority of the experiments was a cell line expressing the m2 receptor.
The effects of various compounds on the expression of m2 receptors on CHO cells transfected with DNA for the m2 receptor were investigated. Receptor numbers were assayed using tritiated QNB binding and subtracting non-specific binding. Compounds were dissolved in DMSO and DMSO was used as a control. Compounds were tested at a range of final concentrations. Compounds were also tested in the presence and absence of tamoxifen to try to distinguish an oestrogen receptor mediated mechanism.

[4] = test system: m1 receptor mRNA; assay: m1 receptor mRNA levels in brain by in situ hybridisation; type: in vivo, SD rats; conditions: for m1 receptor mRNA, comparison SaG vs Aged: 3 mg sarsasapogenin per rat per day in feed, four months, positive means increased
Protocol: 20 months old pure-line male SD rats were divided randomly into 2 groups. One group received an average of 3 mg of sarsasapogenin per rat per day mixed into the daily feed. The control group received normal food and water. Four months later, their brains were used in hybridisation technique experiments, with 4 to 6 months old rats used as a young control group. Other feeding arrangements for each group were completely identical.
A cDNA chain which respectively corresponds to the maNA of both m1 and m2 was synthesised, m1 corresponds to the 3-18 amino acid sequence of receptor protein, i.e. TGGTGCCAAGACAGTGATGTTGGGACTGACAGCAGGGGGCACTGAGGT, and M2 to the 1-16 amino acid sequence, i.e. ATGAATAACTCAACAAACTCCTCGAACAATGGCTTGGCTATTACCAGT. The cDNA was labelled using a 3′-terminal-label reagent kit with a-^35S-dATP (8.9 TBq/mmol) as the label material. After the reaction had finished, it was purified with a nucleotide column. The specific activity of the batch was estimated (16.67-33.34)×108 MBq/μg. a-^35S-dATP, 3′-terminal-label reagent kit and nucleotide column were obtained from Du Pont Co., USA.
One rat was obtained from each group each time and parallel experiments were performed. The rats were decapitated and their brains removed intact. 15 μm thick coronal slices were prepared in a constantly freezing cryo-microtome (AS-600 cryo-microtome, Anglia Scientific Co, UK). Slices were taken from different areas (identical places for each rat) and were mounted on slides smeared with polylysine, dried in a cool current of air, fixed in a solution of 4% paraformaldehyde (containing 1×phosphate buffer saline (PBS), pH 7.0) for 5 minutes before being washed twice in PBS. They were then placed in 0.25% acetic anhydride solution (containing 0.1 M triethanolamine hydrochloride, Ph 8.0, and 0.9% sodium chloride) for 10 minutes, dehydrated in 70%, 80%, 95%, and 100% ethyl alcohol for 1 minute, degreased in chloroform for 5 minutes, and finally treated in 100% and 95% ethyl alcohol for 1 minute successively.
Slices used as negative controls were taken and dehydrated in ethyl alcohol etc. as detailed above, but treated in advance in 100 mg m1 RNase and 2×SSC solution (salt/sodium citrate solution containing 300 mmol/L sodium chloride and […] sodium citrate) for 2 hours at 37° C. […]
Autoradiographs were prepared in a dark room, the specimen and the hyperfilm beta max being pressed together using the contact method and placed in a cassette with a desiccant, exposed at 4° C. for 2 to 3 weeks. […] Finally, the autoradiographs were analysed using a computerised image analyser (VIDAS imaging analyser, Kontron, Germany).

[5] = test system: M1 cholinergic receptors; conditions: Chinese Patent No. CN1096031A; cited from earlier work
[6] = test system: β-adrenergic receptors; conditions: Chinese Patent No. CN1096031A; cited from earlier work
[7] = test system: major known classes of membrane bound receptor; assay: Direct binding to major known classes of membrane bound receptor
From the text: Thus it can be postulated that the observed effects are probably not due to for instance an effect at the nicotinic receptor and a consequential increase in the number of muscarinic receptors. This explanation appears to be even less plausible (although it cannot be excluded) if one considers that certain of the compounds have also been shown by the inventors to increase the number of beta adrenergic receptors expressed on peripheral blood lymphocytes. Thus the mechanism would appear to be one which has a more general effect on the regulation of membrane bound receptors.

[8] = test system: known steroidal receptors; assay: Binding to known steroidal receptors
[9] = Molar concentration of compound 10^−5

## C[C@@H]1CC[C@@]2(OC1)O[C@H]1C[C@H]3[C@@H]4C[C@@H](O)[C@@]5(O)C[C@@H](O)CC[C@]5(C)[C@H]4CC[C@]3(C)[C@H]1[C@@H]2C [Anzurogenin D]
[1]
  Concentration of compound causing a significant increase in number of receptors expressed on neonatal cardiac muscle after 10 days in vitro culture: 10^−6 M
[2]
  Oestrogenic Activity: Negative
[3]; [9]
  Effect on receptor expression—given as % increase compared to control (negative values in brackets): 22%

## C[C@@H]1CC[C@@]2(OC1)O[C@H]1C[C@H]3[C@@H]4CC=C5C[C@@H](O)CC[C@]5(C)[C@H]4CC[C@]3(C)[C@H]1[C@@H]2C [Diosgenin]
[2]
  Oestrogenic Activity: Positive

## C[C@@H]1CC[C@@]2(OC1)O[C@H]1C[C@H]3[C@@H]4CC=C5C[C@@H](O)C[C@@H](O)[C@]5(C)[C@H]4CC[C@]3(C)[C@H]1[C@@H]2C [Ruscogenin]
[2]
  Oestrogenic Activity: Positive

## Astragaloside
[1]
  Concentration of compound causing a significant increase in number of receptors expressed on neonatal cardiac muscle after 10 days in vitro culture: 10^−5 M
[2]
  Oestrogenic Activity: Negative

## Sarsasapogenin
[1]
  Concentration of compound causing a significant increase in number of receptors expressed on neonatal cardiac muscle after 10 days in vitro culture: 10^−5 M
[4]; Cortex
  m1 receptor mRNA, comparison SaG vs Aged: 5.77 ± 3.82 (20)
[4]; Hippocampus
  m1 receptor mRNA, comparison SaG vs Aged: 0.96 ± 4.26 (10)
[4]; Striatum, p < 0.01, listed as SaG
  m1 receptor mRNA, comparison SaG vs Aged: significant increase and 15.71 ± 3.27 (10)
[4]; rats treated with SaG
  levels of M receptor mRNA: raised
[5]
  regulation of M1 cholinergic receptors: up-regulate
[2]
  Oestrogenic Activity: Negative
[6]
  regulation of β-adrenergic receptors: down-regulate
[3]; [9]
  Effect on receptor expression—given as % increase compared to control (negative values in brackets): 34%
[7]
  direct binding to membrane bound receptors: not to bind directly
[8]
  binding to known steroidal receptors: do not bind

## Smilagenin
[1]
  Concentration of compound causing a significant increase in number of receptors expressed on neonatal cardiac muscle after 10 days in vitro culture: 10^−6 M
[2]
  Oestrogenic Activity: Negative
[3]; [9]
  Effect on receptor expression—given as % increase compared to control (negative values in brackets): 57%
[3]; Molar concentration of compound 10^−6
  Effect on receptor expression—given as % increase compared to control (negative values in brackets): 18%

## Tigogenin
[2]
  Oestrogenic Activity: Negative
